Where two headings read alike, the source gives them in different places.
Tests used:
[1] = molecular target: T1, hERG1a/1b (heteromeric hERG channel, IhERG) (Homo sapiens, UniProt Q12809)
T1 construct: gene KCNH2

[2] = molecular target: T2, hERG1a (homomeric hERG channel, IhERG) (Homo sapiens, UniProt Q12809)
T2 construct: gene KCNH2

[3] = molecular target: T1, hERG1a/1b (heteromeric hERG channel, IhERG); test: whole-cell patch clamp, tail current
[4] = molecular target: T2, hERG1a (homomeric hERG channel, IhERG); test: whole-cell patch clamp, tail current

T1 sequence (Q12809 whole entry): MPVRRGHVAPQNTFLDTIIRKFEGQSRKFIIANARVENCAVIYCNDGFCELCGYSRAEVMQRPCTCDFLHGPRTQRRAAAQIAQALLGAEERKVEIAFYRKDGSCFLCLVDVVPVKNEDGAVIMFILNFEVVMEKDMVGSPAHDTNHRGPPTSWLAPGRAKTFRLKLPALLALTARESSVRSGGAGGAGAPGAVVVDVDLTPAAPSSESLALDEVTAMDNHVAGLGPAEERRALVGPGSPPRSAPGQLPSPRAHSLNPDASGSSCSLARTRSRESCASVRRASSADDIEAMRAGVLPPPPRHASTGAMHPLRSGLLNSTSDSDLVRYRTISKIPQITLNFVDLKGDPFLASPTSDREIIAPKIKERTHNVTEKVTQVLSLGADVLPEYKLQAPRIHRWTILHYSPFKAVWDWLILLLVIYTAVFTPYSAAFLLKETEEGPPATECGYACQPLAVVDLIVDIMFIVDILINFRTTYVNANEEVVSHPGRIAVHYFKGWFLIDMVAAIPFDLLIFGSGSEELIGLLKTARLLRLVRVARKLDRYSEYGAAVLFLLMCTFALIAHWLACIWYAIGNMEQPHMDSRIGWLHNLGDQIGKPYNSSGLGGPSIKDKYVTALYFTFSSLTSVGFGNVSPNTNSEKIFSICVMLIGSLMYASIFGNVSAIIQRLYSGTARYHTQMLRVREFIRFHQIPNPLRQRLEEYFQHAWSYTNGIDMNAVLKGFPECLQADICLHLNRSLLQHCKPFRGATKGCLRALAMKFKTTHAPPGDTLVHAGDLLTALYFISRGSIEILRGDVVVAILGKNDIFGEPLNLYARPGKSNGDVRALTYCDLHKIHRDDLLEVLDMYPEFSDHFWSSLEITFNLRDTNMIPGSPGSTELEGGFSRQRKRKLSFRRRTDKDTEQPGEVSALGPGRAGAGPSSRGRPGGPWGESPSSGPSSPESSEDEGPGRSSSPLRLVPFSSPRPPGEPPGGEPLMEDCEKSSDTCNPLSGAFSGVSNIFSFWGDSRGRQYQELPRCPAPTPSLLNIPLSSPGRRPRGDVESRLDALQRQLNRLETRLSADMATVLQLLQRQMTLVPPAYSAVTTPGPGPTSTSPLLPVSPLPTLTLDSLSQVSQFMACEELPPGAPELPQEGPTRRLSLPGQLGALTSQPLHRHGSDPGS
T1 sequence (Q12809 377-1159 limits assumed): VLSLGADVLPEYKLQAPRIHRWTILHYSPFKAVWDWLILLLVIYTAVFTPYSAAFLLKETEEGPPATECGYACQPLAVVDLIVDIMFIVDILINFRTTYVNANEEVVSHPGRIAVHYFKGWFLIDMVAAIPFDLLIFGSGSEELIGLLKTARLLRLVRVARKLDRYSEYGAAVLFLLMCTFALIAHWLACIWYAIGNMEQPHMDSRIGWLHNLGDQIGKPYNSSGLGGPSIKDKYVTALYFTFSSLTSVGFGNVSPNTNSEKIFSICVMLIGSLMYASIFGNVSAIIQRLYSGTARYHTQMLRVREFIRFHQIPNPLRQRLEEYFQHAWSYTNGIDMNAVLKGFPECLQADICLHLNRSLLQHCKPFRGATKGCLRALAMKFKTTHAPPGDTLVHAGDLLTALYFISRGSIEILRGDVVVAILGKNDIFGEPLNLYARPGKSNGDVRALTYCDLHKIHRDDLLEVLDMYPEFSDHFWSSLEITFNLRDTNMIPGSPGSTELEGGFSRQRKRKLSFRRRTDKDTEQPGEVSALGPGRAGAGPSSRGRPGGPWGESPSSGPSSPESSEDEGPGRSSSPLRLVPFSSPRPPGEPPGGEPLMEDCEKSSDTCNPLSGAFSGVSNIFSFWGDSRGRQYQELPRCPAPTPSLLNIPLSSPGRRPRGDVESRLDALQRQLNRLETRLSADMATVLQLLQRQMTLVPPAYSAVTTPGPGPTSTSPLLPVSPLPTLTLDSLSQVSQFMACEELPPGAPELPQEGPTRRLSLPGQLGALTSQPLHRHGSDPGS
T2 sequence (Q12809 whole entry): as the sequence (Q12809 whole entry) above

| SMILES | IC50 [1] [µM] | IC50 [2] [µM] | IC50 [3] [µM] | IC50 [4] [µM] |
| --- | --- | --- | --- | --- |
| CO[C@]12CC[C@@]3(C[C@@H]1[C@](C)(O)C(C)(C)C)[C@H]1Cc4ccc(O)c5c4[C@@]3(CCN1CC1CC1)[C@H]2O5 [Buprenorphine] | 6.9 ± 0.9 | 8.7 ± 0.4 |  |  |
| O=C1CC[C@@]2(O)[C@H]3Cc4ccc(O)c5c4[C@@]2(CCN3CC2CC2)[C@H]1O5 [Naltrexone] |  |  | 32.3 ± 8.6 | 31.1 ± 5.4 |
